Read-outs that look alike come from different tables or passages of the source. Marks after values point to notes of the source that are not given here. Bounds are passed on as bounds.

We go through 4 compounds from article PMC9820444, “Design and Synthesis of Acridine-Triazole and Acridine-Thiadiazole Derivatives and Their Inhibitory Effect against Cancer Cells” (International Journal of Molecular Sciences, 2022).

In data set [1] the test system is large cell lung cancer cells (NCI-H460). The experiment in a line: MTT antiproliferative assay, NCI-H460. In kind it is cell-based, human. The note with it: read-out: Effect against cell viability (IC50), NCI-H460. As for the experimental part:
(§1) All newly synthesized acridinyl derivatives (4–6) were screened for their anticancer activities in comparison to the reference compounds, 5-FU and cis-platinum. Compounds 4–6 were tested for their in vitro antitumor activities against HFF, MGC-803, BEL-7404, NCI-H460, and T24 tumor cell lines, and human normal liver cells (LO2), and the results are shown in Table 1. Most of the compounds had strong selective potency against MGC-803 and T24 cancer cells. […] In the T24 cell line assay, many compounds, especially the series of compound 4, had significant activity against T24. This implies that there is a significant increase in potency after the introduction of the aroyl thiourea group. […] To our delight, most 1,2,4-triazolethiones (5) and 1,2,4-thiadiazoles (6) have low toxicity to LO2 compared with the positive control.
(§2) Test samples, including compounds 4–6 and commercial classical anticancer drugs (5-FU and cis-platinum), were screened for their anti-cancer activity against HFF human foreskin fibroblast cells, MGC-803 human gastric cancer cells, BEL-7404 human hepatocellular carcinoma cells, NCI-H460 human large cell carcinoma cells, and T24 human bladder carcinoma cells using the 3-(4,5-dimethylthiazol-2-yl)-2,5-diphenyltetrazoliumbromide (MTT) assay method cited in the literature. The initial concentration of all the test samples was 100 μg/mL, which was serially diluted in complete medium with ten-fold dilutions to give six concentrations per compound. Their cytotoxicity was determined in 96-well flat bottomed microtiter plates. All the test samples were tested in triplicate. The results were expressed as the drug concentration that inhibited cell growth by 50% as compared to the controls (IC50). The IC50 values were calculated from regression lines obtained from the percent cell growth inhibition plotted as a function of the logarithm of the dose.

Data set [2] has as its system human gastric cancer cells-803 (MGC-803). The experiment in a line: MTT antiproliferative assay, MGC-803. In kind it is cell-based. The note with it: read-out: Effect against cell viability (IC50), MGC-803. As for the experimental part:
as §1, §2

Data set [3] deals with human normal liver cells (LO2). The experiment in a line: Cytotoxicity against normal liver cells LO2. In kind it is cell-based. To be noted: MTT, read-out: Effect against cell viability (IC50), LO2. The method, then:
as §1, §2

The test system of data set [4] is bladder cancer cells (T24). The experiment in a line: MTT antiproliferative assay, T24. In kind it is cell-based, human. To be noted: read-out: Effect against cell viability (IC50), T24. As for the experimental part: as §1, §2
A general note: Tetrazolium dyes change colour on reduction, which living cells bring about.

Data set [5] has as its target T1, DNA topoisomerase I (topo I) (Bos taurus, UniProt F1MN93).
T1 construct: purchased Takara Bio Inc. (Shiga, Japan)
T1 sequence (F1MN93 1-767): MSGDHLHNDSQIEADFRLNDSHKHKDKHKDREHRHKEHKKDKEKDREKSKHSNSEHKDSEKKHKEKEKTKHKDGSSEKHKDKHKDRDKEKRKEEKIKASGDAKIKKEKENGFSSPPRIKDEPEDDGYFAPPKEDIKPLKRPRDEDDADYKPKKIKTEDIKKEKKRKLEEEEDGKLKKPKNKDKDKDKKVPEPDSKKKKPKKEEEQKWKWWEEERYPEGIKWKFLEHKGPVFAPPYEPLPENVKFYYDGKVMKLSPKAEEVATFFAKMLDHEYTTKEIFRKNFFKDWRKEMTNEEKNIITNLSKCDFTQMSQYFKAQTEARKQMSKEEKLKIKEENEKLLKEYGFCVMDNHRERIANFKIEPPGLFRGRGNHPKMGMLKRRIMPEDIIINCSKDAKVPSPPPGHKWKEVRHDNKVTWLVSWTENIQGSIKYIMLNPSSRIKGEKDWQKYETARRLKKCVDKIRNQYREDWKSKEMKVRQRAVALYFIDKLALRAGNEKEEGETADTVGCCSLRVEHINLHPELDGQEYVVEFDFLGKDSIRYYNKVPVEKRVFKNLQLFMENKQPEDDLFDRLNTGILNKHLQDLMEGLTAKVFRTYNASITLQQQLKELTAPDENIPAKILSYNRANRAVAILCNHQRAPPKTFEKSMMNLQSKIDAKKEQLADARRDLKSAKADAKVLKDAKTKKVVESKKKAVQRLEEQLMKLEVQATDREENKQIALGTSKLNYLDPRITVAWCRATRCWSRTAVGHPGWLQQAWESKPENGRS
The experiment in a line: Topo I inhibitory activity (pBR322). In kind it is biochemical. The note with it: at 100 µM.

Data set [6] has as its system human foreskin fibroblasts (HFF). The experiment in a line: MTT antiproliferative assay, HFF. To be noted: read-out: Effect against cell viability (IC50), HFF. In kind it is cell-based. As for the experimental part:
as §1, §2

For data set [7], the system named is hepatocellular carcinoma bel-7404 (BEL-7404). The experiment in a line: MTT antiproliferative assay, BEL-7404. In kind it is cell-based, human. To be noted: read-out: Effect against cell viability (IC50), BEL-7404. The method, then:
as §1, §2

Data set [8] has as its system T24 cells. The experiment in a line: Apoptosis by Annexin V-FITC/PI flow cytometry, T24. In kind it is cell-based, human. To be noted: T24, at IC50 concentration (4h 8.05 μM; 6h 8.93 μM); control 1.18%. As for the experimental part: The apoptosis ratios of MGC80-3 or T24 cell lines induced by the selected compounds at the concentration of IC50 and 0.5 IC50 were quantitatively determined by flow cytometry. Four quadrant images (Q1, Q2, Q3 and Q4) were observed by flow cytometric analysis. The results of apoptosis ratios (including the early and late apoptosis ratios) after 12 h are presented in Figure 6 (MGC80-3) and Figure 7 (T24). […] After treatment with compound 6h, 5.62% (3.43 μM) and 14.25% (6.85 μM) of the cells were apoptotic. These were higher percentages than the one observed in the control (0.586%). […] The results evidently illustrate that representative compounds 5d and 6h or 4h and 6h could suppress cell proliferation by inducing apoptosis in the early apoptotic period.
(§3) The apoptosis assay and the cell cycle analysis were carried out by cytometry (FACSVerse, BD, Piscataway, NJ, USA) at an excitation wavelength of 488 nm according to the method described in the literature with slight modifications. The cells were seeded at 2 × 10^6/well and washed by cold PBS. The buffer solutions were prepared using 0.1 M pH 7.4 Hepes/NaOH, 1.4 M NaCl, and 25 mM CaCl2.

Data set [9] deals with T24 cells. The experiment in a line: Cell cycle analysis by flow cytometry, T24. The note with it: T24, 8.05 μM (IC50), 48 h; control 22.89%. In kind it is cell-based, human. The method, then:
Compared to control, both compounds 4h and 5d interfered with the cell cycles of T24 and MGC80-3 cells, respectively.
as §3
On the technique in general: A flow cytometer gives signals particle by particle.

Data set [10] concerns subintestinal veins (SIVs) in zebrafish embryos. The experiment in a line: Zebrafish angiogenesis assay (subintestinal veins, NBT/BCIP staining). In kind it is in vivo. To be noted: zebrafish embryos, 1 mg/mL. The text has this: Currently, the zebrafish has emerged as a valuable model organism to substitute traditional models for studying angiogenesis inhibitors. The genes of zebrafish show 70–80% similarity to humans, and the vascular structure of zebrafish has high similarity to that of other vertebrates. Therefore, the subintestinal veins (SIVs) in the zebrafish embryos are used as evaluation indicators for anti-angiogenesis inhibitors. In this study, NBT/BCIP vascular staining was used to observe the angiogenesis effect of representative drugs (4h, 4f, 5d, 5h, 6g and 6h) in a zebrafish model. […] Compared with the blank control group, the area of the meshed pattern vessel and the number of vascular branches in the network decreased after the administration of compounds 4h, 5d, 5h and 6h.
The 24 hpf zebrafish embryos were dechorionated with a 1 gL^−1 pronase treatment and maintained in distilled water in 12-well cell culture plates (each well contained 20 embryos). A negative control group containing zebrafish embryos in distilled water and a vehicle treatment group that was treated with 2% dimethyl sulfoxide (DMSO) were prepared. The anti-angiogenic compounds were diluted to 1 mg/mL. After incubating at 28 °C for […], the embryos were immersed in 4% paraformaldehyde and dehydrated by gradient ethanol. Subsequently, the embryos were balanced in NTMT buffer (5 M NaCl + 1 M Tris [pH 9.0–9.5] + 1 M MgCl2+ 10% Tween), and nitrotetrazolium blue chloride (NBT) and p-toluidine salt (BCIP) staining were performed. To evaluate the effect of compounds on the angiogenesis of zebrafish embryos, the growth of embryonic sub-intestinal veins (SIVs) at 72 hpf was observed using an IX71 Olympus microscope (Hamburger, Germany). The length of the SIVs was calculated using the image J 1.8.0 software (Bethesda, MD, USA).

The test system of data set [11] is zebrafish embryos. The note with it: for MAR (malformation rate) / MOR (mortality rate): zebrafish embryos 72 hpf. As for the experimental part: In this experiment, 2% DMSO was used to dissolve the target products, and the abnormal rate (MAR) and mortality rate (MOR) of zebrafish embryos (72 hpf) were used for statistics.
The zebrafish embryos were collected at 6 hpf and randomly divided into naive control (embryos maintained in distilled water), vehicle control (embryos treated with 2% DMSO), and drug groups. Stock solutions of all drugs were prepared in 2% DMSO as a solubilizing agent and diluted to three concentrations (0.5 mg/mL, 1 mg/mL, and 2 mg/mL). Each group had 20 embryos per test concentration. […] Each compound was evaluated in three independent biological experiments.

For the compound `COc1ccc2[nH]c3ccccc3c(=NC(=S)NNC(=O)c3ccc(Cl)cc3)c2c1` [4e], the IC50 in [1] was 73.2 ± 3.67 µM; in data set [2] (MTT), 25.6 ± 1.97 µM; in data set [3], 10.2 ± 1.12 µM; in [4] it was 10.3 ± 1.07 µM; in data set [6], 66.8 ± 4.52 µM; in data set [7] it was 25.9 ± 2.17 µM. Moreover, the “topo I inhibitory activity” value in data set [5] was “potent”.

For the compound `COc1ccc(C(=O)NNC(=S)Nc2c3ccccc3nc3ccc(C)cc23)cc1` [4h, 1-2′-methyl acridinyl-3-4’-methoxy benzoyl thiosemicarbazides], the IC50 in data set [1] was 25.4 ± 3.16 µM; in [2] (MTT) it was 11.2 ± 1.46 µM; in data set [3] it was 9.01 ± 0.93 µM; in data set [4], 8.05 ± 1.06 µM; in data set [6], > 100 µM; in data set [7], 27.1 ± 2.91 µM. Also, in [8], the apoptosis ratio is on record as 12.377%. The compound also yielded a S phase population in [9] of 30.04%. Besides, in [10] (compared with blank control group), the “area of the meshed pattern vessel and number of vascular branches in the network” value was “decreased”. Also, the results for the “MAR (malformation rate)” value in data set [11] (1 mg/mL), in [11] (1.5 mg/mL) and in data set [11] (2 mg/mL) were 35% ^a, 85% ^a and 35% ^a, respectively. Besides, the “MOR (mortality rate)” value is recorded as 15% ^a in data set [11] (1 mg/mL), 15% ^a in [11] (1.5 mg/mL) and 65% ^a in data set [11] (2 mg/mL). The “total mortality and malformation rate” value in [11] (zebrafish embryos, 2.0 mg.L^−1) is on record as 100%.

Turning to `COc1ccc(-c2n[nH]c(=S)n2-c2c3ccccc3nc3ccc(OC)cc23)cc1` [5c, 4-(2-methoxyacridin-9-yl)-5-(4-methoxyphenyl)-2,4-dihydro-3H-1,2,4-triazole-3-thione], the melting point (in general, the temperature of the solid-liquid transition) fell in the range of 262 to 267 °C. In addition, the IC50 in data set [1] (Homo sapiens) was found to be 36.5 ± 3.92 µM. Further, the IC50 in data set [2] (Homo sapiens, MGC-803, MTT) worked out at 15.1 ± 0.98 µM. The IC50 in data set [3] (Homo sapiens) is > 100 µM. For the same compound, in [4] (Homo sapiens), the IC50 turned out to be 29.3 ± 1.91 µM. Also, the “topo I inhibitory activity” value in data set [5] is listed as “potent”. Besides, in data set [6] (Homo sapiens, Fibroblast), the IC50 came out at 75.5 ± 2.92 µM. Moreover, in [7] (Homo sapiens), the IC50 came to 28.7 ± 2.24 µM.

`CC1=CC2C(=Nc3nnc(-c4ccccc4)s3)c3ccccc3NC2C=C1` (stereo not shown) [6g, 7-methyl-N-(5-phenyl-1,3,4-thiadiazol-2-yl)-10,10a-dihydroacridin-9(8aH)-imine] showed a melting point of 294 to 296 °C. Moreover, the IC50 in data set [1] (Homo sapiens) was determined as 25.9 ± 1.83 µM. In addition, the IC50 in data set [2] (Homo sapiens, MGC-803, MTT) worked out at 9.01 ± 1.32 µM. In addition, in [2] (MTT), the IC50 amounted to 9.95 ± 1.03 µM. Also, the IC50 in [3] (Homo sapiens) is > 100 µM. Further, the IC50 in [4] (Homo sapiens) came out at 19.3 ± 1.05 µM. In addition, the IC50 in data set [6] (Homo sapiens, Fibroblast) was found to be 76.5 ± 2.79 µM. The “area of blood vessels” value in data set [10] (additional blood vessels were formed on the blood vessel edge) is listed as “could reduce the area of blood vessels”. The IC50 in data set [7] (Homo sapiens) was determined as 31.2 ± 3.27 µM.
